Experimental data reported in US8609695B2, “Methods of treating and/or suppressing insulin resistance” (Endorecherche, Inc., priority 1999, dated 2013).
Marks after values point to notes of the source that are not given here.

Columns and labels:
[1] = test system: ovariectomized female rats; test: 20-day treatment with EM-652.HCl, estradiol and DHEA, body fat (Example 6); type: in vivo, Rattus norvegicus; conditions: OVX rats
From the text: d) Diet: Certified Rodent feed (Lab Diet #5002, pellets) and tap water were provided ad libitum during the acclimation period. During the study period, the rats received an enriched carbonhydrate diet ad libitum. The enriched diet (diet #3) was composed of (g/100 g): Corn starch, 31.2; Dextrose, 31.2; Casein, 20.0; Corn oil, 6.4; dl-Methionine, 0.3; Vitamin mix, 1.0; AIN-76 mineral mix, 4.9; Fiber, 5.0.
80 rats were assigned to 8 groups of 10 rats for the conduct of the study outlined below:
On day 0 of the study, rats from groups 2 to 8 were ovariectomized, by bilateral flank incision, under Isoflurane-induced anesthesia. Rats from group 1 were sham-operated.
The administration of the test articles or vehicle began on Day 1 (the day following the ovariectomy). The tested compounds were given as suspensions in 0.4% methylcellulose by oral gavage (0.5 ml/gavage) for 20 days.
On day 21 of the study (prior to the necropsy), body composition was determined on whole body skeleton of animals under Isoflurane-induced anesthesia using dual energy x-ray absorptiometry (DEXA; QDR 4500A, Hologic) in order to determine the effect of treatments on fat percentage.
Right and left retroperitoneal adipose tissue were collected and weighed.

[2] = test system: ovariectomized female rats; test: SERM comparison, energy balance and lipid-lipoprotein metabolism (Example 10); type: in vivo, Rattus norvegicus; conditions: OVX rats, 20 days
Description: For this purpose, tested compounds were administered by oral gavage for 20 days (0.5 mg/rat for each compound; 0.5 ml/rat) in 0.4% methylcellulose to ovariectomized female rats.
d) Diet: • During acclimation period, rats received a certified rodent diet (Lab Diet #5002, pellet) and tap water ad libitum while during study period, they received a high carbonhydrate diet (diet #3) and tap water ad libitum. The diet was composed of (g/100 g): Corn starch, 31.2; Dextrose, 31.2; Casein, 20.0; corn oil, 6.4; dl-Methionine, 0.3; Vitamine mix, 1.0; AIN-76 mineral mix, 4.9; fiber, 5.0. Rats were fasted (with access to water only) around 07 h00 the morning of their necropsy Randomization:
Test group: Seventy-seven rats were assigned to 8 groups of 9-10 rats for conduct of the study outlined below.
On day 0 of the study, rats from group 2 to 8 were ovariectomized (by bilateral flank incision) under Isoflurane anesthesia. Rats from group 1 were sham-operated.
Rats were weighed on day 0 (surgery) and then, every 2 days during study period as well as on the day of necropsy.
Food consumption was evaluated every 2 days.
In order to determine the effect of treatments on fat percentage, body composition was measured on Day 17 of the study using dual energy x-ray absorptiometry (DEXA; QDR 4500A, Hologic, Waltham, Mass.).
On day 21 of the study, approximately 24 hours after the last dosing and 6 hours of fasting, animals under Ketamine-Xylazine anesthesia were killed by exsanguination at the abdominal aorta.
Blood lipids (Total cholesterol and Triglycerides) and glucose were measured on frozen serum samples using the Boehringer Mannheim Diagnostic Hitachi 911 Analyzer (Boehringer Mannheim Diagnostic Laboratory Systems). Circulating hormones and substrates (Insulin and leptin) were measured on serum sample using the following kits: • Insulin: Linco RIA kit • Leptin: Linco RIA kit Organs and Tissues Collected
The following tissues were collected and weighed: • Muscle (right soleus and right VLM), fat (right retroperitoneal and right inguinal), and brown adipose tissue.
A piece of ˜0.1 g of all tissues (except uterus and vagina) were frozen in liquid nitrogen and kept at −80 C for later determination of lipoprotein-lipase (LPL) activity.

[3] = test system: ovariectomized rats; test: 20-day treatment with EM-652.HCl, body fat, body weight and energy balance (Example 3); type: in vivo, rat; conditions: OVX rats, 20 days
Description: Eight to ten week-old female Sprague-Dawley rats (Crl:CD(SD)Br) (Charles River Laboratory, St-Constant, Canada) weighing approximately 200-225 g at the start of treatment were used. The animals were acclimatized to the environmental conditions (temperature: 22±3° C.; 10-h light-14-h dark cycles, lights on at 06:00 h) for 1 week before starting the experiment. The animals were housed individually in stainless steel cages of conventional design and were allowed free access to tap water and a high carbohydrate mixed diet composed of (g/100 g): Corn starch, 31.2; Dextrose, 31.2; Casein, 20.0; corn oil, 6.4; dl-Methionine, 0.3; Vitamine mix, 1.0; AIN-76 mineral mix, 4.9 and fiber, 5.0. The experiment was conducted in a Canadian Council on Animal Care approved facility in accordance with the CCAC Guide for Care and Use of Experimental Animals.
On day 1 of the study, the animals of the appropriate groups were bilaterally ovariectomized (OVX) under isoflurane anesthesia. […] The treatment with EM-652.HCl or vehicle alone (0.4% methylcellulose in water) was initiated on day 2 of the study. The compound or vehicle was given once daily by oral gavage in 0.5 ml/rat for 20 days. Body weights and food consumption were recorded every 2 days.
Approximately 24 hours after the last dosing, overnight fasted animals were anesthesized with ketamine-xylazine and blood drawn by cardiac puncture. The blood was collected as well as white and brown adipose tissues.
Body weight, food intake, and body gains in energy, fat, and protein were determined according to Deshaies et al, Am. J. Physiol., 1997; 273, E355-E362 (1997).
Lipoprotein lipase activities were determined according to Deshaies et al, Am. J. Physiol., 1997; 273, E355-E362 (1997).

[4] = test system: ovariectomized rat; test: 35-week treatment, total body fat and body weight of ovariectomized rat (Example 1); type: in vivo; conditions: OVX rats; for Body Weight at Necropsy: 37 weeks
Description: The animals were housed three per cage and were allowed free access to tap water and a pelleted certified rodent feed (Lab Diet 5002, Ralston Purina, St-Louis, Mo.). The experiment was conducted in a Canadian Council on Animal Care approved facility in accordance with the CCAC Guide for Care and Use of Experimental Animals. […] The appropriate compound or vehicle alone was given once daily by oral gavage in 0.5 ml/rat for 37 weeks. Approximately 24 hours after the last dosing, overnight fasted animals were killed by exsanguination at the abdominal aorta under isoflurane anesthesia. After 35 weeks of treatment, individual rats under anesthesia with isoflurane had their whole body skeleton as well as their right femur scanned using dual energy x-ray absorptiometry (DEXA; QDR 4500A, Hologic, Waltham, Mass.) and a Regional High Resolution Scan software. The scan field size used for the whole body was 30.492×17.912 cm, the resolution was 0.1512×0.0640 cm and the scan speed was 2.499 mm/sec. The fat body composition of the whole body was determined. Data are expressed as the means±SEM. Statistical significance was determined according to the multiple-range test of Duncan-Kramer (1956).

[5] = test system: ovariectomized female rats; test: 34-week treatment with ethynyl estradiol, EM-652.HCl, Raloxifene and DHEA, body fat (Example 7); type: in vivo, rat; conditions: OVX rats, 34 weeks
Description: The objective of this study was to assess the effect of a combined treatment with EM-652.HCl, and DHEA on body fat and body weight parameters in ovariectomized rats. For this purpose, ovariectomized rats received daily administration of EM-652.HCl (1 mg/kg), and DHEA (80 mg/kg) alone or in combination, for 34 weeks. EM-652.HCl was administered orally while DHEA was applied topically on dorsal skin. One group of animals was orally treated with 17-ethynylestradiol (0.1 mg/kg) and Raloxifene (EM-1105; 1 mg/kg) for comparison.
Ten to twelve week-old female Sprague-Dawley rats (Crl:CD(SD)Br) weighing approximately 235-250 g at start of treatment were used. Eighty rats were randomly distributed between 7 groups of 11 to 12 animals per group as follows: 1) Intact control; 2) OVX control; 3) OVX+EE2 (0.1 mg/kg); 4) OVX+raloxifene (1 mg/kg); 5) OVX+EM-652.HCl (1 mg/kg); 6) OVX+DHEA (80 mg/kg); 7) OVX+EM-652.HCl+DHEA. On day 1 of the study, the animals of the appropriate groups were bilaterally ovariectomized (OVX) under isoflurane anesthesia. EM-652.HCl, raloxifene and EE2 (Steraloids) were administered once daily by oral gavage as suspension in 0.4% methylcellulose (0.5 ml/rat) for 34 weeks while DHEA was applied topically once daily on dorsal skin as a solution in 50% ethanol-50% propylene glycol (0.5 ml/rat) for the same time period. Approximately 24 hours after the last dosing, overnight fasted animals were killed by exsanguination at the abdominal aorta under isoflurane anesthesia. Left and right retroperitoneal adipose tissues were collected and weighed.
After 34 weeks of treatment, individual rats under anesthesia with isoflurane had their whole body skeleton scanned using dual energy x-ray absorptiometry (DEXA; QDR 4500A, Hologic, Waltham, Mass.) and a Regional High Resolution Scan software. The body composition (including fat percentage) was determined.
Data were expressed as the means±SEM.

[6] = high carbohydrate diet, 0.5 mg/rat oral gavage
[7] = EM-652.HCl 0.5 mg/rat oral once daily, E2 implant
[8] = EE2 0.1, Raloxifene 1, EM-652.HCl 1 mg/kg oral, DHEA 80 mg/kg topical

Row | SMILES | Brown adipose tissue Lipoprotein lipase activity [2, 6] [μU/g protein] | Brown adipose tissue weight [2, 6] [g] | Cumulative food intake [2, 6] [g] | Serum glucose [2, 6] [mmol/L] | Serum insulin [2, 6] [nmol/L] | Serum leptin [2, 6] [ng/mL] | Serum total cholesterol [2, 6] [mmol/L] | Serum triglycerides [2, 6] [mmol/L] | Soleus muscle Lipoprotein lipase activity [2, 6] [μU/g protein] | Soleus muscle weight [2, 6] [g] | Total weight [2, 6] [g] | VastusLateralis muscle weight [2, 6] [g] | White adipose tissue inguinal Lipoprotein lipase activity [2, 6] [μU/g protein] | White adipose tissue inguinal weight [2, 6] [g] | White adipose tissue retroperitoneal Lipoprotein lipase activity [2, 6] [μU/g protein] | Body Weight at Necropsy ([4]; 0.01 mg/kg orally once daily) [g] | Body Weight at Necropsy ([4]; 0.03 mg/kg orally once daily) [g] | Body Weight at Necropsy ([4]; 0.1 mg/kg orally once daily) [g] | Body Weight at Necropsy ([4]; 0.3 mg/kg orally once daily) [g] | Body Weight at Necropsy ([4]; 1 mg/kg orally once daily) [g] | further results
1 | C[C@]12CC[C@@H]3c4ccc(O)cc4CC[C@H]3[C@@H]1CC[C@@H]2O [E2, estradiol] | 1198 ± 62 | 0.211 ± 0.021 | 255 ± 9 | 11.8 ± 1.4 | 0.070 ± 0.007 | 0.309 ± 0.097 | 2.03 ± 0.15 | 0.43 ± 0.04 | 10.9 ± 2.0 | 0.086 ± 0.003 | 198 ± 4 | 0.718 ± 0.026 | 416 ± 74 | 0.158 ± 0.019 | 1442 ± 243 | – | – | – | – | – | decrease of body fat ([1]; 20 days): 46%; decrease of retroperitoneal adipose tissue ([1]; 20 days): 78%; Retroperitoneal adipose tissue ([1]; enriched carbohydrate diet, 20 days oral, EM-652.HCl 0.5, E2 0.5, DHEA 100 mg/rat): 0.81 ± 0.17 g; Fat % ([1]; enriched carbohydrate diet, 20 days oral, EM-652.HCl 0.5, E2 0.5, DHEA 100 mg/rat, DEXA day 21): 10.3 ± 0.6%; total energy intake, higher than that of intact animals [3]: 17%; Digestible energy intake [3, 7]: 5511^a kJ; Enegery gain [3, 7]: 903 kJ; Apparent energy (expenditure) ([3]; calculated from energy intake and energy gain): 4609^a kJ
2 | CC1=C(c2ccc(OC(=O)C(C)(C)C)cc2)[C@H](c2ccc(OCCN3CCCCC3)cc2)Oc2cc(OC(=O)C(C)(C)C)ccc21 [EM-800] | – | – | – | – | – | – | – | – | – | – | – | – | – | – | – | 385 ± 17 | 364 ± 10 | 369 ± 17 | 359 ± 7 | 368 ± 6 | decrease of the OVX-induced stimulation of body fat (DEXA) ([4]; 0.01 mg/kg orally once daily, 35 weeks, FIG. 1): 78%
3 | Cl.O=C(c1ccc(OCCN2CCCCC2)cc1)c1c(-c2ccc(O)cc2)sc2cc(O)ccc12 [Raloxifene] | 960 ± 116 | 0.307 ± 0.26 | 307 ± 8 | 13.8 ± 1.2 | 0.077 ± 0.10 | 1.39 ± 0.30 | 1.19 ± 0.08 | 1.20 ± 0.35 | 10.2 ± 2.0 | 0.099 ± 0.003 | 230 ± 3 | 0.795 ± 0.055 | 579 ± 46 | 0.245 ± 0.047 | 1510 ± 52 | 439 ± 13 | 451 ± 14 | 389 ± 14 | 367 ± 9 | 342 ± 12 | Serum insulin (in words) ([2]; 0.5 mg/rat): decreased; White adipose tissue retroperitoneal weight [2, 6]: 1.32 ± 0.24 g; increment of body fat and retroperitoneal adipose tissue by ovariectomy [5]: prevented; Fat % ([5]; DEXA, EE2 0.1, Raloxifene 1, EM-652.HCl 1 mg/kg oral, DHEA 80 mg/kg topical): 22.8 ± 1.6%; Left retroperitoneal adipose tissue [5, 8]: 1.41 ± 0.13 g; Right retroperitoneal adipose tissue [5, 8]: 1.29 ± 0.12 g; effect on body fat (DEXA) ([4]; 0.01-1 mg/kg orally once daily, 35 weeks, FIG. 1): less active than EM-800
